Measured values reported in patent publication US6737383B1, “Herbicidal oxadiazolidines” (priority 1999, dated 2004).

Experiments:
cocklebur = assay: Test B pre/postemergence cocklebur; type: in vivo, Xanthium strumarium
Outline: (§1)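 Herbicidal effect was estimated by eye on a ten-point control scale after plants spent twelve to sixteen days in a greenhouse following soil or foliar treatment. Foliar sprays targeted plants at one to four leaves; all doses were formulated in a non-phytotoxic solvent with surfactant.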

soybean = assay: Test B pre/postemergence soybean; type: in vivo, Glycine max
Outline: as §1

bedstraw = assay: Test B pre/postemergence bedstraw; type: in vivo, Galium aparine; conditions: Preemergence
Outline: as §1

corn = assay: Test B pre/postemergence corn; type: in vivo, Zea mays
Outline: as §1

duck salad = assay: Test B flood test duck salad; type: in vivo, Heteranthera limosa
Outline: (§2)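 Each value is a visual injury score relative to controls, with 10 meaning complete control and 0 no effect. Evaluation took place twelve to sixteen days after the 2-leaf-stage plants were treated and kept in the greenhouse.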

rape = assay: Test B pre/postemergence rape; type: in vivo, Brassica napus
Outline: as §1

velvetleaf = assay: Test B pre/postemergence velvetleaf; type: in vivo, Abutilon theophrasti
Outline: as §1

smallflower flatsedge = assay: Test B flood test smallflower flatsedge; type: in vivo, Cyperus difformis
Outline: as §2

wild oat = assay: Test B pre/postemergence wild oat; type: in vivo, Avena fatua
Outline: as §1

wheat = assay: Test B pre/postemergence wheat; type: in vivo, Triticum aestivum
Outline: as §1

surinam grass = assay: Test B pre/postemergence surinam grass; type: in vivo, Brachiaria decumbens
Outline: as §1

crabgrass = assay: Test B pre/postemergence crabgrass; type: in vivo, Digitaria sanguinalis
Outline: as §1

morningglory = assay: Test B pre/postemergence morningglory; type: in vivo, Ipomoea hederacea
Outline: as §1

giant foxtail = assay: Test B pre/postemergence giant foxtail; type: in vivo, Setaria faberii
Outline: as §1

pigweed = assay: Test B pre/postemergence pigweed; type: in vivo, Amaranthus retroflexus
Outline: as §1

blackgrass = assay: Test B pre/postemergence blackgrass; type: in vivo, Alopecurus myosuroides
Outline: as §1

sugar beet = assay: Test B pre/postemergence sugar beet; type: in vivo, Beta vulgaris
Outline: as §1

purple nutsedge = assay: Test B pre/postemergence purple nutsedge; type: in vivo, Cyperus rotundus
Outline: as §1

bamyardgrass = assay: Test B flood test barnyardgrass; type: in vivo, Echinochloa crus-galli
Outline: as §2

rice = assay: Test B flood test rice; type: in vivo, Oryza sativa
Outline: as §2

[1] = Postemergence, Rate 62 g/ha, scale 0 to 10, 0 is no effect, 10 is complete control
[2] = Postemergence, Rate 125 g/ha, scale of 0 to 10 where 0 is no effect and 10 is complete control
[3] = Postemergence, Rate 250 g/ha, scale of 0 to 10, 0 is no effect, 10 is complete control
[4] = Postemergence, Rate 500 g/ha, scale of 0 to 10 where 0 is no effect and 10 is complete control
[5] = Preemergence, Rate 62 g/ha, scale 0 to 10 (0 no effect, 10 complete control)
[6] = Preemergence, Rate 125 g/ha, scale of 0 to 10 where 0 is no effect and 10 is complete control
[7] = Preemergence, Rate 500 g/ha, scale of 0 to 10 where 0 is no effect and 10 is complete control
[8] = Rate 62 g/ha, flood test species, Pre-emergence, visual evaluation after twelve to sixteen days
[9] = Rate 125 g/ha, under heading Pre-emergence, flood test species, visual evaluation after twelve to sixteen days
[10] = Rate 250 g/ha, Pre-emergence (flood test species), scale 0 to 10, 0 is no effect, 10 is complete control
[11] = Rate 500 g/ha, Pre-emergence section of Table B, 0 to 10 scale (0 no effect, 10 complete control)

CC(C)N(C(=O)n1oc(=O)n(CC(C)[N+](=O)[O-])c1=O)c1ccccc1 (stereo not drawn) [Compound 604]
3: Crabgrass plant response rating (crabgrass; [3]) | Plant response rating, Crabgrass (crabgrass; [4]) | Giant foxtail plant response rating (giant foxtail; [3])
7: Plant response rating, Giant foxtail (giant foxtail; [7])
1: Plant response rating, Soybean (soybean; [2]) | Soybean plant response rating (soybean; [3]) | Plant response rating, Soybean (soybean; [4]) | Plant response rating, Crabgrass (crabgrass; [1]) | Plant response rating, Crabgrass (crabgrass; [7]) | Plant response rating, Morningglory (morningglory; [2]) | Plant response rating, Giant foxtail (giant foxtail; [1])
4: Plant response rating, Giant foxtail (giant foxtail; [4])
0: Plant response rating, Cocklebur (cocklebur; [1]) | Plant response rating, Cocklebur (cocklebur; [2]) | Cocklebur plant response rating (cocklebur; [3]) | Plant response rating, Cocklebur (cocklebur; [4]) | Cocklebur plant response rating (cocklebur; [5]) | Cocklebur plant response rating (cocklebur; [6]) | Cocklebur plant response rating (0 to 10 scale) (cocklebur; Preemergence, Rate 250 g/ha) | Plant response rating, Cocklebur (cocklebur; [7]) | Plant response rating, Soybean (soybean; [1]) | Soybean plant response rating (soybean; [5]) | Soybean plant response rating (soybean; [6]) | Plant response rating, Soybean (soybean; [7]) | Bedstraw plant response rating (0 to 10 scale) (bedstraw; Rate 250 g/ha) | Bedstraw plant response rating (bedstraw; Rate 500 g/ha, scale of 0 to 10 where 0 is no effect and 10 is complete control) | Plant response rating, Corn (corn; [1]) | Plant response rating, Corn (corn; [2]) | Corn plant response rating (corn; [3]) | Plant response rating, Corn (corn; [4]) | Corn plant response rating (corn; [5]) | Corn plant response rating (corn; [6]) | Corn plant response rating (0 to 10 scale) (corn; Preemergence, Rate 250 g/ha) | Plant response rating, Corn (corn; [7]) | Plant response rating, Ducksalad (0 to 10 scale, 0 is no effect, 10 is complete control) (duck salad; [8]) | Ducksalad plant response rating (0 to 10 scale, 0 is no effect, 10 is complete control) (duck salad; [9]) | Ducksalad plant response rating (duck salad; [10]) | Ducksalad plant response rating (duck salad; [11]) | Plant response rating, Rape (rape; [1]) | Plant response rating, Rape (rape; [2]) | Rape plant response rating (rape; [3]) | Plant response rating, Rape (rape; [4]) | Rape plant response rating (rape; [5]) | Rape plant response rating (rape; [6]) | Plant response rating, Rape (rape; [7]) | Plant response rating, Velvetleaf (velvetleaf; [1]) | Plant response rating, Velvetleaf (velvetleaf; [2]) | Velvetleaf plant response rating (velvetleaf; [3]) | Plant response rating, Velvetleaf (velvetleaf; [4]) | Velvetleaf plant response rating (velvetleaf; [5]) | Velvetleaf plant response rating (velvetleaf; [6]) | Plant response rating, Velvetleaf (velvetleaf; [7]) | Plant response rating, S. Flatsedge (0 to 10 scale, 0 is no effect, 10 is complete control) (smallflower flatsedge; [8]) | S. Flatsedge plant response rating (0 to 10 scale, 0 is no effect, 10 is complete control) (smallflower flatsedge; [9]) | S. Flatsedge plant response rating (smallflower flatsedge; [10]) | S. Flatsedge plant response rating (smallflower flatsedge; [11]) | Plant response rating, Wild oats (wild oat; [1]) | Plant response rating, Wild oats (wild oat; [2]) | Wild oats plant response rating (wild oat; [3]) | Plant response rating, Wild oats (wild oat; [4]) | Wild oats plant response rating (wild oat; [5]) | Wild oats plant response rating (wild oat; [6]) | Plant response rating, Wild oats (wild oat; [7]) | Plant response rating, Wheat (wheat; [1]) | Plant response rating, Wheat (wheat; [2]) | Wheat plant response rating (wheat; [3]) | Plant response rating, Wheat (wheat; [4]) | Wheat plant response rating (wheat; [5]) | Wheat plant response rating (wheat; [6]) | Plant response rating, Wheat (wheat; [7]) | Plant response rating, B. signalgrass (surinam grass; [1]) | Plant response rating, B. signalgrass (surinam grass; [2]) | B. signalgrass plant response rating (surinam grass; [3]) | Plant response rating, B. signalgrass (surinam grass; [4]) | B. signalgrass plant response rating (surinam grass; [5]) | B. signalgrass plant response rating (surinam grass; [6]) | B. signalgrass plant response rating (0 to 10 scale, 0 is no effect, 10 is complete control) (surinam grass; Preemergence, Rate 250 g/ha) | B. signalgrass plant response rating (surinam grass; [7]) | Crabgrass plant response rating (crabgrass; [5]) | Crabgrass plant response rating (crabgrass; [6]) | Plant response rating, Morningglory (morningglory; [1]) | Morningglory plant response rating (morningglory; [5]) | Morningglory plant response rating (morningglory; [6]) | Plant response rating, Morningglory (morningglory; [7]) | Giant foxtail plant response rating (giant foxtail; [5]) | Plant response rating, Redroot pigweed (pigweed; [1]) | Plant response rating, Redroot pigweed (pigweed; [2]) | Redroot pigweed plant response rating (pigweed; [3]) | Plant response rating, Redroot pigweed (pigweed; [4]) | Redroot pigweed plant response rating (pigweed; [5]) | Redroot pigweed plant response rating (pigweed; [6]) | Plant response rating, Redroot pigweed (pigweed; [7]) | Plant response rating, Blackgrass (blackgrass; [1]) | Plant response rating, Blackgrass (blackgrass; [2]) | Blackgrass plant response rating (blackgrass; [3]) | Plant response rating, Blackgrass (blackgrass; [4]) | Blackgrass plant response rating (blackgrass; [5]) | Blackgrass plant response rating (blackgrass; [6]) | Blackgrass plant response rating (0 to 10 scale) (blackgrass; Preemergence, Rate 250 g/ha) | Blackgrass plant response rating (blackgrass; [7]) | Plant response rating, Sugarbeets (sugar beet; [1]) | Plant response rating, Sugarbeets (sugar beet; [2]) | Sugarbeets plant response rating (sugar beet; [3]) | Plant response rating, Sugarbeets (sugar beet; [4]) | Sugarbeets plant response rating (sugar beet; [5]) | Sugarbeets plant response rating (sugar beet; [6]) | Plant response rating, Sugarbeets (sugar beet; [7]) | Plant response rating, Nutsedge (purple nutsedge; [1]) | Plant response rating, Nutsedge (purple nutsedge; [2]) | Nutsedge plant response rating (purple nutsedge; [3]) | Plant response rating, Nutsedge (purple nutsedge; [4]) | Nutsedge plant response rating (purple nutsedge; [5]) | Nutsedge plant response rating (purple nutsedge; [6]) | Plant response rating, Nutsedge (purple nutsedge; [7]) | Plant response rating, Barnyardgrass (0 to 10 scale, 0 is no effect, 10 is complete control) (bamyardgrass; [8]) | Barnyardgrass plant response rating (0 to 10 scale, 0 is no effect, 10 is complete control) (bamyardgrass; [9]) | Barnyardgrass plant response rating (bamyardgrass; [10]) | Barnyardgrass plant response rating (bamyardgrass; [11]) | Plant response rating, Rice (0 to 10 scale, 0 is no effect, 10 is complete control) (rice; [8]) | Rice plant response rating (0 to 10 scale, 0 is no effect, 10 is complete control) (rice; [9]) | Rice plant response rating (rice; [10]) | Rice plant response rating (rice; [11])
2: Morningglory plant response rating (morningglory; [3]) | Plant response rating, Morningglory (morningglory; [4]) | Plant response rating, Giant foxtail (giant foxtail; [2]) | Giant foxtail plant response rating (giant foxtail; [6])
